Patent US8058227B2, “Method of treating fibrosis in a subject in need thereof comprising administering a composition comprising a CSD” (Medical University of South Carolina, priority 2006, dated 2011)
Entries after “also recorded” stand apart in the source; their conditions may differ.

Experiments:
[1] = tested on: normal lung fibroblasts (NLF); assay: CSD peptide treatment of NLF, Western blotting; assay type: cell-based, human
Excerpt: (§1) Fibroblasts were derived from lung tissue obtained at autopsy from scleroderma patients (SLF) and from age-, race-, and sex-matched normal subjects (NLF) and cultured as previously described (44). Cells were used in passages 2-4. The group of scleroderma patients fulfilled the criteria of American college of Rheumatology for the diagnosis of scleroderma with lung involvement. Normal human lung tissue was obtained from the Brain and Tissue Bank for Developmental Disorders (Baltimore, Md.) or from the National Disease Research Interchange (Philadelphia, Pa.). Scleroderma lung tissue was obtained from the Division of Pathology and Laboratory Medicine at the Medical University of South Carolina (MUSC). The study was approved by the Institutional Review Board for Human Subject Research at the MUSC.
(§2) The CSD peptide (amino acids 82-101 of caveolin-1; […]) (SEQ ID NO: 1) and a scrambled control peptide ([…]) (SEQ ID NO: 2) were synthesized as fusion peptides to the C terminus of the Antennapedia internalization sequence (RQIKUVFQNRRMKWKK) (SEQ ID NO: 3). Before each experiment, desiccated peptides were dissolved at a final 1 mM in 10% DMSO as described by Bernatchez et al. (4). Cells in 6-well plates at 70-80% confluence were then incubated with 1 ml serum-free DMEM containing […] CSD or scrambled peptide. After 6 h, the culture medium and cell layer were harvested.
(§3) Cell layers were harvested in boiling SDS-PAGE sample buffer; medium was dialyzed, lyophilized, and resuspended in sample buffer. Aliquots of culture medium or of cell layer representing material derived from the same number of cells was probed using the following primary antibodies and appropriate secondary antibodies. Culture medium: goat anti-human collagen I (AB758P) and rabbit anti-human tenascin-C (AB19011) from Chemicon International (Temecula, Calif.). Cell layer: rabbit antibodies against PKCα (sc-208), PKCε (sc-214), activated JNK (sc-12882), activated Akt Thr 308 (sc-166646R) and caveolin-1 (sc-894) from Santa Cruz Biotechnology (Santa Cruz, Calif.); rabbit antibodies against ERK 1/2 (9102), activated ERK 1/2 (9106), JNK (9252), Akt (9272), MEK 1/2 (9122), and activated MEK 1/2 (9121) from Cell Signaling (Beverly, Mass.); mouse monoclonal anti-ASMA (clone 1A4) from Sigma (Saint Louis, Mo.), and mouse monoclonal anti-actin (MAB1501) from Chemicon International (Temecula, Calif.).
(§4) Immunoreactive bands were quantified by densitometry using the Image 1.32J NIH software. For statistical analysis the raw densitometric data were processed and analyzed using the Prism 3.0 (GraphPad Software Inc.) statistical analysis software.

[2] = tested on: scleroderma lung fibroblasts (SLF); assay: Immunocytochemistry and laser confocal microscopy of CSD peptide-treated SLF; assay type: cell-based, human
Description: (§5) NLF or SLF cultured in 4-well glass chamber slides (Nalge Nunc International, Naperville, Ill.) as previously described (43) were incubated with CSD peptide or scrambled (Scr) peptide, fixed, permeabilized, and stained red with 7-aminoactinomycin D to detect nuclei and green using appropriate primary and secondary antibodies to detect caveolin-1 or ph-ERK. Images were captured by confocal microscopy.
as §5, with “ph-JNK” for “caveolin-1”, “ph-Akt.” for “ph-ERK.”
(§6) NLF and SLF were cultured in 4-well glass chamber slides (Nalge Nunc International, Naperville, Ill.) and stained as previously described (43) using the indicated primary antibodies and appropriate secondary antibodies tagged with Alexa Fluoro® 488 (Molecular Probes, Eugene, Oreg.). Nuclei were stained with 7-aminoactinomycin D (Molecular Probes, Eugene, Oreg.). Images were acquired using a Zeiss 510SML Laser Confocal Microscope (excitation S490/20, emission D528/38) fitted with an oil-immersion objective (40×/1.4).

[3] = tested on: scleroderma lung fibroblasts (SLF); assay: Collagen and ASMA expression in SLF treated with CSD and its subdomains; assay type: cell-based, human
Description: (§7) The indicated cell types (NLF and SLF) were cultured as described with 0, 1, 3, or 5 μM of the indicated peptides. Collagen in the medium and ASMA and actin (loading control) in the cell layer were detected by Western blotting. Blots were quantified densitometrically. The level of collagen and ASMA in cells treated with no peptide (divided by the level of actin) was set to 100 arbitrary units. Because SLF express higher levels of collagen and ASMA than do NLF, 100 arbitrary of collagen in SLF is equivalent to 195 arbitrary units of collagen in NLF and 100 arbitrary units of ASMA in SLF is equivalent to 255 arbitrary units of ASMA in NLF. The data presented are the average of the densitometric quantification of three independent experiments.
(§8) To compare the activity of CSD to its subdomains, five subdomains [A (82-88 amino acids), B (89-95), C (96-101), AB (82-95) and BC (89-101)] were synthesized in fusion with the Antennapedia internalization sequence and added to culture medium at 1, 3, and 5 μM. […] Very different results were obtained when examining ASMA expression.

[4] = tested on: normal lung fibroblasts (NLF); assay: Immunocytochemistry and laser confocal microscopy of CSD peptide-treated NLF; assay type: cell-based, human
Description: as §5
as §5, with “ph-JNK” for “caveolin-1”, “ph-Akt.” for “ph-ERK.”
as §6

[5] = tested on: normal lung fibroblasts (NLF); assay: Collagen and ASMA expression in NLF treated with CSD and its subdomains; assay type: cell-based, human; details: 3 μM peptide
Description: as §7, §8

[6] = tested on: scleroderma lung fibroblasts (SLF); assay: CSD peptide treatment of SLF, Western blotting; assay type: cell-based, human
Excerpt: as §1, §2, §3, §4

eNOS = details: endothelial cells; Bernatchez et al. (4); cited from earlier work
[7] = 5 μM CSD peptide vs scrambled peptide
[8] = 5 μM CSD peptide vs scrambled peptide, collagen in culture medium, Western blotting
[9] = CSD peptide vs scrambled peptide

In the case of DGIWKASFTTFTVTKYWFYR [CSD peptide], the “time in which inhibition of collagen expression occurs” value ([1]; 5 μM CSD) is reported as “less than 5 hours”, the “decrease of MEK/ERK activation” value [1, 7] is reported as “about 50%” and the “inhibition of collagen expression” value [1, 8] is reported as > 95%. The “activation of Akt” value ([1]; CSD peptide vs Scr peptide) was “inhibited”, the “activation of JNK” value ([1]; CSD peptide vs Scr peptide) was “inhibited” and the “expression of total MEK, total ERK, total Akt, or total JNK” value ([1]; CSD peptide vs Scr peptide) was “did not affect”. For the same sequence, the “expression of caveolin-1 itself, PKCα, or PKCε” value [1, 9] was “did not affect”, the tenascin-C expression [1, 9] was “inhibited” and the “level of caveolin-1 expression detected by IHC” value ([2]; CSD peptide vs Scr peptide) was “did not affect”. For the same sequence, the “distribution of caveolin-1 staining” value ([2]; CSD peptide vs Scr peptide, particularly in SLF) was “staining associated with the plasma membrane becoming more prominent”, the “distribution of activated Akt staining” value ([2]; CSD peptide vs control peptide) was “preferentially decreased perinuclear, nuclear, and cytoplasmic staining while increasing staining associated with the plasma membrane” and the “distribution of activated JNK staining” value ([2]; CSD peptide vs control peptide) was “preferentially decreased perinuclear staining and increased staining associated with the plasma membrane; also recorded: eliminated the intense punctate cytoplasmic staining”. For the same sequence, the “level of activated Akt (IHC)” value ([2]; CSD peptide vs control peptide) was “decreases”, the “level of activated ERK (IHC)” value ([2]; CSD peptide vs control peptide) was “decreases” and the “level of activated JNK (IHC)” value ([2]; CSD peptide vs control peptide) was “decreases”. The “localization of residual activated ERK staining” value ([2]; after CSD peptide) was “primarily perinuclear and cytoplasmic”, the collagen expression ([3]; 3 μM peptide) was “completely inhibited” and the “inhibition of ASMA expression” value ([3]; 5 μM peptide) was “about 80%”. For the same sequence, the ASMA expression ([3]; peptides at 1, 3, and 5 μM) was “inhibited”, the “distribution of caveolin-1 staining” value ([4]; CSD peptide vs Scr peptide) was “staining associated with the plasma membrane becoming more prominent” and the “level of caveolin-1 expression detected by IHC” value ([4]; CSD peptide vs Scr peptide) was “did not affect”. The “distribution of activated Akt staining” value ([4]; CSD peptide vs control peptide) was “preferentially decreased perinuclear, nuclear, and cytoplasmic staining while increasing staining associated with the plasma membrane”, the “distribution of activated JNK staining” value ([4]; CSD peptide vs control peptide) was “preferentially decreased perinuclear staining and increased staining associated with the plasma membrane” and the “level of activated Akt (IHC)” value ([4]; CSD peptide vs control peptide) was “decreases”. For the same sequence, the “level of activated ERK (IHC)” value ([4]; CSD peptide vs control peptide) was “decreases”, the “level of activated JNK (IHC)” value ([4]; CSD peptide vs control peptide) was “decreases” and the “localization of residual activated ERK staining” value ([4]; after CSD peptide) was “primarily perinuclear and cytoplasmic”. The collagen expression [5] was “completely inhibited”, the “time in which inhibition of collagen expression occurs” value ([6]; 5 μM CSD) was “less than 5 hours” and the “decrease of MEK/ERK activation” value [6, 7] was “about 50%”. The “inhibition of collagen expression” value [6, 8] was > 95%, the “activation of Akt” value ([6]; CSD peptide vs Scr peptide) was “inhibited” and the “activation of JNK” value ([6]; CSD peptide vs Scr peptide) was “inhibited”. The “expression of total MEK, total ERK, total Akt, or total JNK” value ([6]; CSD peptide vs Scr peptide) was “did not affect”, the ASMA expression [6, 9] was “inhibited” and the “expression of caveolin-1 itself, PKCα, or PKCε” value [6, 9] was “did not affect”. The tenascin-C expression [6, 9] was “inhibited” and the eNOS activity (eNOS) was “most strongly inhibited”.
